The text below walks through data of US8431593B2, “Heteroaryl amide derivatives” (H. Lundbeck A/S, priority 2006, dated 2013).

Molecules are shown by their SMILES. pIC50: −log10 of the molar value. Where only a bound is given, the exact number is not on record here.

The assay deals with T1, P2X7 receptor (Homo sapiens, UniProt Q99572).
T1 construct: host or cells: SH-SY5Y
T1 sequence (Q99572 1-595): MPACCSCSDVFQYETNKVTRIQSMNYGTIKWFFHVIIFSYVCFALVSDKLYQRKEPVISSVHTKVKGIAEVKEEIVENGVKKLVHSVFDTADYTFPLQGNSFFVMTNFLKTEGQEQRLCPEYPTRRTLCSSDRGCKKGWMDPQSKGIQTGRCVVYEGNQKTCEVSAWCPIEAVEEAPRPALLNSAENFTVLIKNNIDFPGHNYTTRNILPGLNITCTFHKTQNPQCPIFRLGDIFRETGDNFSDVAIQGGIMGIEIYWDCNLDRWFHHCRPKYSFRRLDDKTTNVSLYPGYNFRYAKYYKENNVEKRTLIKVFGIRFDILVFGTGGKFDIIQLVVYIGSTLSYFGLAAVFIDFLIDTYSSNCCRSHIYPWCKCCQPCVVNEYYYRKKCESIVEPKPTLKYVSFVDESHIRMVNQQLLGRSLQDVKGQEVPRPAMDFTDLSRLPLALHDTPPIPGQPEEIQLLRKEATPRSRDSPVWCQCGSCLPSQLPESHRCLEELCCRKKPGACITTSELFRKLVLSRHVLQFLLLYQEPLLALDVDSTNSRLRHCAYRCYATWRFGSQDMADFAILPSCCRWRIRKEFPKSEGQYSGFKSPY
Description: P2X7 calcium mobilization assay, high throughput, antagonist activity (Example 4A). Format: cell-based. As to conditions: 50% decrease in the fluorescence response of cells exposed to 80 μM of 2′(3′)-O-(4-benzoyl-benzoyl)adenosine 5′-triphosphate; determined as in Example 4A; read-out: IC50. The procedure, abridged: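 Antagonism was measured as calcium mobilization on FLIPR^TETRA after a 1 h room-temperature compound preincubation of dye-loaded cells. Baseline from no-agonist wells was subtracted from each well's maximum RFU.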
`O=C(Cc1cn2c(C(=O)NCC3(c4ccc(C(F)(F)F)cc4)CCCCC3)cccc2n1)NC1CCCC1` [Compound 877, 2-[2-(cyclopentylamino)-2-oxoethyl]-N-({1-[4-(trifluoromethyl)phenyl]cyclohexyl}methyl) imidazo[1,2-a] pyridine-5-carboxamide]: the negative logarithm of the IC50 (pIC50) was over 5.70.

Consider `O=C(NCC1(c2ccc(C(F)(F)F)cc2)CCCCC1)c1cccc2nc(CC(=O)N3CCn4cncc4C3)cn12` [Compound 879, 2-[2-(5,6-dihydroimidazo[1,5-a]pyrazin-7(8H)-yl)-2-oxoethyl]-N-({1-[4-(trifluoromethyl)phenyl]cyclohexyl}methyl) imidazo[1,2-a] pyridine-5-carboxamide], for which the pIC50 is over 5.70.

Consider `O=C(NCC1(c2ccc(Cl)cc2)CCCCC1)c1cccc2nc(CC(=O)N3CCn4cncc4C3)cn12` [Compound 881, N-{[1-(4-chlorophenyl)cyclohexyl]methyl}-2-[2-(5,6-dihydroimidazo[1,5-a]pyrazin-7(8H)-yl)-2-oxoethyl]imidazo[1,2-a]pyridine-5-carboxamide], for which the negative logarithm of the IC50 (pIC50) was over 5.70.

Take `CC(C)(C)CCNC(=O)Cc1cn2c(C(=O)NCC3(c4ccc(Cl)cc4)CCOCC3)cccc2n1` [Compound 882, N-{[4-(4-chlorophenyl)tetrahydro-2H-pyran-4-yl]methyl}-2-{2-[(3,3-dimethylbutyl)amino]-2-oxoethyl}imidazo[1,2-a]pyridine-5-carboxamide]: the pIC50 is over 5.70.

With `CC(C)(C)CCNC(=O)Cc1cn2c(C(=O)NCC3(c4ccc(C(F)(F)F)cc4)CCCCC3)cccc2n1` [Compound 883, 2-{2-[(3,3-dimethylbutyl)amino]-2-oxoethyl}-N-({1-[4-(trifluoromethyl)phenyl]cyclohexyl}methyl) imidazo[1,2-a] pyridine-5-carboxamide], the negative logarithm of the IC50 (pIC50) is over 5.70.

Take `CC(C)(C)CCNC(=O)Cc1cn2c(C(=O)NCC3(c4cccnc4)CCCCC3)cccc2n1` [Compound 884, 2-{2-[(3,3-dimethylbutyl)amino]-2-oxoethyl}-N-[(1-pyridin-3-ylcyclohexyl)methyl] imidazo[1,2-a] pyridine-5-carboxamide]: the pIC50 was over 5.70.

In the case of `CC(C)N1CCN(C(=O)Cc2cn3c(C(=O)NCC4(c5ccc(C(F)(F)F)cc5)CCCCC4)cccc3n2)CC1` [Compound 885, 2-[2-(4-isopropylpiperazin-1-yl)-2-oxoethyl]-N-({1-[4-(trifluoromethyl)phenyl]cyclohexyl}methyl) imidazo[1,2-a] pyridine-5-carboxamide], the pIC50 is over 5.70.

On to `CC(C)N1CCN(C(=O)Cc2cn3c(C(=O)NCC4(c5ccc(Cl)cc5)CCCCC4)cccc3n2)CC1` [Compound 886, N-{[1-(4-chlorophenyl)cyclohexyl]methyl}-2-[2-(4-isopropylpiperazin-1-yl)-2-oxoethyl] imidazo[1,2-a] pyridine-5-carboxamide], for which the negative-log IC50 (pIC50) is over 5.70.

As for `O=C(NCC1(c2ccc(C(F)(F)F)cc2)CCCCC1)c1cccc2nc(CC(=O)N3CCSCC3)cn12` [Compound 889, 2-(2-oxo-2-thiomorpholin-4-ylethy)-N-({1-[4-(trifluoromethyl)phenyl]cyclohexyl}methyl) imidazo[1,2-a] pyridine-5-carboxamide], the pIC50 was over 5.70.

Take `O=C(NCC1(c2cccnc2)CCCCC1)c1cccc2nc(CC(=O)N3CCSCC3)cn12` [Compound 890, 2-(2-oxo-2-thiomorpholin-4-ylethyl)-N-[(1-pyridin-3-ylcyclohexyl)methyl] imidazo[1,2-a] pyridine-5-carboxamide]: the negative-log IC50 (pIC50) is over 5.70.

Take `O=C(NCC1(c2ccc(Cl)cc2)CCCCC1)c1cccc2nc(CC(=O)N3CCSCC3)cn12` [Compound 891, N-{[1-(4-chlorophenyl)cyclohexyl]methyl}-2-(2-oxo-2-thiomorpholin-4-ylethyl)imidazo [1,2-a]pyridine-5-carboxamide]: the pIC50 was over 5.70.
